{"source": "paper PMC11748689", "about": "“Pharmacological and structural understanding of the Trypanosoma cruzi proteasome provides key insights for developing site-specific inhibitors” (The Journal of Biological Chemistry, 2024)", "key": {"[1]": {"target": "recombinant WT T. cruzi proteasome (chymotrypsin-like activity, β5) (Trypanosoma cruzi, UniProt V5BU39+V5C017)", "sequence (V5BGL9 entry or part of it)": "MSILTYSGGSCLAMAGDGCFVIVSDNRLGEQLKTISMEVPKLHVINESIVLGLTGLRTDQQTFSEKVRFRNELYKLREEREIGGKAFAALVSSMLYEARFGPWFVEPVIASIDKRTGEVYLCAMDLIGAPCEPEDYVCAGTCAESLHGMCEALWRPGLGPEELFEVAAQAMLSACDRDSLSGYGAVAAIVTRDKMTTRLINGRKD", "sequence (V5BU39 entry or part of it)": "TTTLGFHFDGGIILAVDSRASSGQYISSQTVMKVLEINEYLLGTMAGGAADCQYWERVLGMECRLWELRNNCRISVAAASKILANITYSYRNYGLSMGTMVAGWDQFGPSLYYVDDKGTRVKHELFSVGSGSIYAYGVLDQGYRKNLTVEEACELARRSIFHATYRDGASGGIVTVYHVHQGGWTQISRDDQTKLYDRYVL", "sequence (V5C017 entry or part of it)": "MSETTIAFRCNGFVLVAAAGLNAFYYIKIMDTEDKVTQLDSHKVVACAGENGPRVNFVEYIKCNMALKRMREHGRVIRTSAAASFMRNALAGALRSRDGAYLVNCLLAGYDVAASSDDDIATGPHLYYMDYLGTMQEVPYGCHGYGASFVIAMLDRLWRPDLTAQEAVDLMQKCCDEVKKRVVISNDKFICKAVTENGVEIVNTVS", "experiment": "biochemical", "format": "biochemical", "conditions": "for maximum % inhibition plateau, Chymotrypsin Assay, Wild-type: mean ± SD, N = 3 (N = 2 for DDD02091966), (a) mid-point plateau from biphasic curve fits", "experimental": "Chymotrypsin-, trypsin-, and caspase-like activity assays were performed using a commercially available Proteasome-Glo 3-substrate system assay kit (catalog number G8532) (Promega Corporation) according to the manufacturers protocols and as previously described ([24]).\nPrior to running assays, Proteasome-Glo buffer was used to reconstitute the luciferin detection reagent (containing a recombinant thermostable luciferase enzyme). The resuspended luciferin detection reagent was then mixed with Proteasome-Glo chymotrypsin-, trypsin- or caspase-like substrates (either 40 μM suc-Leu-Leu-Val-Tyr-aminoluciferin, 30 μM Z-Leu-Arg-Arg-aminoluciferin (Z is benzyloxycarbonyl) or 40 μM Z-Nle-Pro-Nle-Asp-aminoluciferin respectively (these concentrations represent 2x final assay concentrations)). These substrate mixtures were allowed to incubate at room temperature for 60 min prior to use to allow the removal of any contaminating free aminoluciferin.\nProteasome assays were carried out using 384-well, white, low-volume plates (catalog number 784904) (Greiner Bio-One) at room temperature (∼23 °C) in 8 μl reaction volumes. When activity checks were to be run in the presence or absence of a fixed concentration of proteasome inhibitor, 80 nL of the inhibitor (at a concentration 100x the required final assay concentration), or 80 nL dimethylsulfoxide (DMSO), were dispensed into assay plates using an Echo 550 acoustic dispenser (Labcyte).\nA 1 in 2 dilution series of the various T. cruzi proteasome samples (native, recombinant WT, β4^R mutant, and Δβ1Δβ2 mutant) were produced in assay buffer (50 mM Tris–HCl, pH 7.5, 10 mM sucrose, 5 mM MgCl2, 1 mM DTT, 2 mM ATP, 150 mM NaCl, 1 mM EDTA, and 0.05 mg/ml bovine serum albumin). Subsequently, 4 μl of the various concentrations of diluted proteasome were added to assay plates using an electronic multichannel pipette (Integra Biosciences Ltd). When kinetic read activity checks were performed (Fig. 2), proteasome final assay concentrations used were 115 μg/ml, 115 μg/ml, and 230 μg/ml native proteasome (in the chymotrypsin, trypsin, and caspase assays, respectively), and 4.1 μg/ml, 3.4 μg/ml, or 1.4 μg/ml recombinant WT proteasome (in the chymotrypsin, trypsin, and caspase assays, respectively). When activity checks were to be run in the presence or absence of a proteasome inhibitor plates containing inhibitor or DMSO control were incubated with the relevant proteasome sample for 60 min at room temperature (this step was not included in activity check experiments where compounds were not used).\nFollowing the 60 min incubation of proteasome and compound (if required), assays were initiated with the addition of 4 μl of substrate mix (containing substrate and the luciferin detection reagent) using an electronic multichannel pipette. Final assay concentrations of substrates used were either 20 μM Suc-Leu-Leu-Val-Tyr-aminoluciferin, 15 μM Z-Leu-Arg-Arg-aminoluciferin, or 20 μM Z-Nle-Pro-Nle-Asp-aminoluciferin for chymotrypsin-, trypsin- or caspase-like activity respectively.\nLuminescence was read either kinetically or as an endpoint read using an EnVision 2102 Multilabel Reader (PerkinElmer, Inc) with 0.2 s per well reading time. When kinetic assays were run, luminescence was read every 5 min for 90 min. Endpoint assays were run for 60 min before luminescence was read. All data processing and linear fit analyses were performed using Microsoft Excel for Microsoft 365 software (Redmond, Washington; https://www.microsoft.com/).\nWhen proteasome inhibitors were to be screened in the chymotrypsin, trypsin, and caspase assays, test compounds were dispensed into assay wells using an ECHO 550 acoustic dispenser (Labcyte) (final DMSO concentration 1%). Compounds were tested in either a 10-point concentration series (30 μM top final assay concentration, 1 in 3 dilution series) or a 12-point concentration series (30 μM top final assay concentration, 1 in 2.5 dilution series)."}, "[2]": {"target": "human proteasome (chymotrypsin activity) (Homo sapiens, UniProt P28074)", "experiment": "Human proteasome chymotrypsin activity assay", "format": "biochemical", "conditions": "dose response curve, n = 2 (Fig. S7)", "experimental": "Human proteasome assays were carried out as described in ([42])."}}, "data": [{"smiles": "O=C(Nc1ccc(F)c(-c2cn3nc(-c4ccccc4)cnc3n2)c1)N1CCCC1", "note": "[DDD01012248]", "values": [{"measurement": "IC50", "setting": "[1]", "value": 52.5, "unit": "nM"}, {"measurement": "inhibition of chymotrypsin activity, recombinant WT proteasome, fixed concentration", "setting": "[1]; 1 μM compound, endpoint activity vs proteasome concentration (Fig. 7A)", "value": "partial inhibition"}, {"measurement": "maximum % inhibition plateau, Chymotrypsin Assay, Wild-type", "setting": "[1]", "value": "67.7 ± 4.0", "unit": "%"}]}, {"smiles": "O=C(Nc1ccc(F)c(C(=O)NC2CC2)c1)c1ccc(COc2ccccc2)o1", "note": "[DDD02091966, N-(3-(cyclopropylcarbamoyl)-4-fluorophenyl)-5-(phenoxymethyl)furan-2-carboxamide]", "values": [{"measurement": "IC50", "setting": "[1]", "value": 34.7, "unit": "nM"}, {"measurement": "maximum % inhibition plateau, Chymotrypsin Assay, Wild-type", "setting": "[1]", "value": "51.6 ± 1.8", "unit": "%"}, {"measurement": "inhibition of the human chymotrypsin activity", "setting": "[2]", "value": "no inhibition"}]}]}
